The source made the active and inactive calls. The rule behind the calls is not given here.
Legend:
[1] = molecular target: T1, Histone-lysine N-methyltransferase NSD2 (Homo sapiens) (UniProt O96028); assay: Induction of NSD2 degradation in human A549 cells at 5 to 10 uM incubated for 72 hrs by Western blot analysis; format: cell-based; conditions: dose 5-10 µM
T1 sequence (whole entry): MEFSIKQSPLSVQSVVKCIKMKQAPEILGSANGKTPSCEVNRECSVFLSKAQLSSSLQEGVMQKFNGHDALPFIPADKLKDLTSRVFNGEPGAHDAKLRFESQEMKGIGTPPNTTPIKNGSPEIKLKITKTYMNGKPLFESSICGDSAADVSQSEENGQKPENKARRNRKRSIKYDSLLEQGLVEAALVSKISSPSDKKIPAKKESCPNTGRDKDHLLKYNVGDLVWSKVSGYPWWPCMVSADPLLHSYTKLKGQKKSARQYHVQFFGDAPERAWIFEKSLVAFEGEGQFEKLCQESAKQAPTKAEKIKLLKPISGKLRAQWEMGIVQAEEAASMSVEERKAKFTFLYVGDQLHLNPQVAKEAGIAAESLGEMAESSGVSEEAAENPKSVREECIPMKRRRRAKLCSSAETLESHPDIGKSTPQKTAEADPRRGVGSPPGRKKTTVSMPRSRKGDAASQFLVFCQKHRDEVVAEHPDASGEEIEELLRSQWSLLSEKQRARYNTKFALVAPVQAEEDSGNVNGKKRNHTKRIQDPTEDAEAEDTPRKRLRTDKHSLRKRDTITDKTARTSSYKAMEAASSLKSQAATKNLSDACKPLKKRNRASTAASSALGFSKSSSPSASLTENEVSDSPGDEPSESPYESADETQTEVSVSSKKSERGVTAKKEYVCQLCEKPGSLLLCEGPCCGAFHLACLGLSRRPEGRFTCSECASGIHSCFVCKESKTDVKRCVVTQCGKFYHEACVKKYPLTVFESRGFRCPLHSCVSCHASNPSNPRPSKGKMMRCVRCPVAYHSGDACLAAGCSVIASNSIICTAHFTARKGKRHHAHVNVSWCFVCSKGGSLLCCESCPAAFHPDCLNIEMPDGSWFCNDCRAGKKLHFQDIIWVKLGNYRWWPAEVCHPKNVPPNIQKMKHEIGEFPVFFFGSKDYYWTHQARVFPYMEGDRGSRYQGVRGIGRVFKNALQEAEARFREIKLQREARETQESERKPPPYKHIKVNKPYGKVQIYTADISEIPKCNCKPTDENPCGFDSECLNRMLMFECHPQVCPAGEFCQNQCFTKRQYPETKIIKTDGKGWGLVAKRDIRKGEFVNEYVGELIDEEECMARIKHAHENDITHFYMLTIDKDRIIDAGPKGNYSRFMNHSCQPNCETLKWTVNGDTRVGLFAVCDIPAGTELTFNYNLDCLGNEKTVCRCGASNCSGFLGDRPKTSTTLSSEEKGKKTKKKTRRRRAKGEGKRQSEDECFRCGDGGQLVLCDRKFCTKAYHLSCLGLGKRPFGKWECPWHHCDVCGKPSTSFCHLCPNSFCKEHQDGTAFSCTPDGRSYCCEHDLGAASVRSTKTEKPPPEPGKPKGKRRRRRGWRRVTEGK

NCI-H1703 [2] = assay: Induction of apoptosis in human NCI-H1703 cells assessed as decrease in MCL-1 protein expression at 5 to 10 uM by Western blot analysis; format: functional, cell-based; conditions: dose 5-10 µM
NCI-H1703 [3] = assay: Induction of apoptosis in human NCI-H1703 cells assessed as viable cells at 5 uM measured after 72 hrs by PI/Annexin-V staining based flow cytometry analysis (reference value: 92.7% ); format: functional; conditions: read-out: Activity
NCI-H1703 [4] = assay: Induction of apoptosis in human NCI-H1703 cells assessed as necrotic cells at 3 uM measured after 72 hrs by PI/Annexin-V staining based flow cytometry analysis (reference value: 2.80% ); format: functional
NCI-H1703 [5] = assay: Induction of apoptosis in human NCI-H1703 cells assessed as necrotic cells at 10 uM measured after 72 hrs by PI/Annexin-V staining based flow cytometry analysis (reference value: 2.80% ); format: functional
A549 = assay: Antitumor activity against human A549 cells xenografted mouse model assessed as reduction in NSD3 expression level at 100 mg/kg, ip measured within 36 hrs by Western blot analysis; format: functional, organism-based
[6] = Downregulation of Cyclin D1 level in human NCI-H1703 cells at 3 uM by measuring fold change by Western blot analysis relative to control; format: functional
[7] = Downregulation of c-Myc level in human NCI-H1703 cells at 3 uM by measuring fold change by Western blot analysis relative to control; format: functional
[8] = Downregulation of NSD3 level in human NCI-H520 cells at 3 uM by measuring fold change by Western blot analysis relative to control; format: functional
[9] = Downregulation of CDC25A level in human NCI-H520 cells at 3 uM by measuring fold change by Western blot analysis relative to control; format: functional
[10] = Downregulation of CDC25A level in human NCI-H520 cells at […] by measuring fold change by Western blot analysis relative to control; format: functional; conditions: dose 7.5 µM
[11] = Downregulation of c-Myc level in human NCI-H520 cells at 3 uM by measuring fold change by Western blot analysis relative to control; format: functional
[12] = Downregulation of c-Myc level in human NCI-H520 cells at 5 uM by measuring fold change by Western blot analysis relative to control; format: functional
NCI-H1703 [13] = assay: Induction of apoptosis in human NCI-H1703 cells assessed as decrease in NSD3 protein expression at […] by measuring fold change by Western blot analysis relative to control; format: functional; conditions: dose 7.5 µM
NCI-H520 [14] = assay: Induction of apoptosis in human NCI-H520 cells assessed as decrease in NSD3 protein expression at 10 uM by measuring fold change by Western blot analysis relative to control; format: functional
NCI-H520 [15] = assay: Induction of apoptosis in human NCI-H520 cells assessed as decrease in MCL-1 protein expression at 5 uM by measuring fold change by Western blot analysis relative to control; format: functional
NCI-H520 [16] = assay: Induction of apoptosis in human NCI-H520 cells assessed as decrease in Bcl-XL protein expression at […] by measuring fold change by Western blot analysis relative to control; format: functional; conditions: dose 7.5 µM

Activity [1]: inactive
SMILES: Cc1cc(CNCCCCCCCCCCC(=O)N[C@H](C(=O)N2C[C@H](O)C[C@H]2C(=O)N[C@@H](C)c2ccc(-c3scnc3C)cc2)C(C)(C)C)cc(C)c1-c1ncn(C)c1-c1ccnc2cc(F)ccc12
Activity (NCI-H1703 [2]): Active
viability at 5 µM (NCI-H1703 [3]): 81.2%
Activity (NCI-H1703 [4]): 1.34%
Activity (NCI-H1703 [5]): 16.6%
Activity (A549): Active
fold change (FC) [6]: 0.84
fold change (FC) [7]: 0.86
fold change (FC) [8]: 0.67
fold change (FC) [9]: 0.9
fold change (FC) [10]: 0.6
fold change (FC) [11]: 1.03
fold change (FC) [12]: 0.97
fold change (FC) (NCI-H1703 [13]): 0.73
fold change (FC) (NCI-H520 [14]): 0.49
fold change (FC) (NCI-H520 [15]): 0.86
fold change (FC) (NCI-H520 [16]): 0.8
